Substitutions are numbered along the chain they refer to.
Columns and labels:
Type in all cases: cell-based
FUS protein [1] = molecular target: T1, FUS protein (Rattus norvegicus, UniProt Q5PQK2); test: FUS degradation in PC12 cells, Western blot; details: liposome transfection, 24 hours
T1 construct: endogenous in cells; host or cells: PC12 cells
T1 sequence (Q5PQK2 1-515): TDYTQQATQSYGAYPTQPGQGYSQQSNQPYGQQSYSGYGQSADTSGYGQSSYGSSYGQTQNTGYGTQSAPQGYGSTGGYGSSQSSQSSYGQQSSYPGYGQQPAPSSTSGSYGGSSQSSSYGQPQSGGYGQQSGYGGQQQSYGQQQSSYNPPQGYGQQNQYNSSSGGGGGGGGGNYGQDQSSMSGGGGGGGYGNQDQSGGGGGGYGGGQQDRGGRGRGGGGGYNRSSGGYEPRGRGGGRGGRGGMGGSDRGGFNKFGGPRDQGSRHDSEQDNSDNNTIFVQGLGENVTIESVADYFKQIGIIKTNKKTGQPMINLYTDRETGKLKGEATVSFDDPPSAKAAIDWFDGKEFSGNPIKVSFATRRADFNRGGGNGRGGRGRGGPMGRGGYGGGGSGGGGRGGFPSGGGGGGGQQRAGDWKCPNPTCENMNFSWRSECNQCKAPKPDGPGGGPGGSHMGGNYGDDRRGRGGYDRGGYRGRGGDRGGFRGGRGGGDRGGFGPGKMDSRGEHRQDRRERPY
Method: The 10 PROTACs were transfected into PC12 cells at a final concentration of 125 nM using liposomes. After 24 hours, the cells were lysed, and changes in FUS protein were detected by Western blot.
(§1) dFUS-C1 solutions were prepared at concentration gradients of 9.4 nM, 18.7 nM, 37.5 nM, 62.5 nM, and 125 nM, and were transfected into PC12 or SH-SY5Y cells using liposomes. After 24 hours, the cells were lysed, and changes in FUS protein were detected by Western blot.

FUS protein [2] = molecular target: T2, FUS protein (Homo sapiens, UniProt P35637); test: FUS degradation in SH-SY5Y cells, Western blot; details: concentration gradient 9.4-125 nM, liposome transfection, 24 hours
T2 construct: endogenous in cells; host or cells: SH-SY5Y cells
T2 sequence (P35637 1-526): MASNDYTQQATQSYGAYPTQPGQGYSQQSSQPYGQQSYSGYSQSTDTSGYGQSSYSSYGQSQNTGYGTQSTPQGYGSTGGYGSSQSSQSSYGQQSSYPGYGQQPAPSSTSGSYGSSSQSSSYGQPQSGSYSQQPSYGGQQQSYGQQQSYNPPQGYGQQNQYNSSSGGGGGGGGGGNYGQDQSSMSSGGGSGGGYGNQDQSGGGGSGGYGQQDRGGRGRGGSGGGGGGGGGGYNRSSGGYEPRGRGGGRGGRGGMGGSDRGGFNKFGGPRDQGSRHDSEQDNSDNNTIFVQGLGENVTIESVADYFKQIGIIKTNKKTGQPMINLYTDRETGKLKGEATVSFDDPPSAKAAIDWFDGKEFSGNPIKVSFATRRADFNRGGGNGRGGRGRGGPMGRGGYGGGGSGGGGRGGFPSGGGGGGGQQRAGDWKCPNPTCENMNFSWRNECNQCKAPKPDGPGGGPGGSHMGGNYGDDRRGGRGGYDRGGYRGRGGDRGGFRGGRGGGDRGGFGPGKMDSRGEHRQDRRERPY
Method: as §1
Then 15% non-denaturing polyacrylamide gel electrophoresis was performed at 120 V for about 70 min, followed by staining with SYBR Gold nucleic acid gel stain, and finally imaged using a Bio-RAD instrument. […] For testing the FUS protein degradation performance of dFUS-PS, dFUS-PS solutions were prepared at concentration gradients of 9.4 nM, 18.7 nM, 37.5 nM, 62.5 nM, and 125 nM, and were transfected into SH-SY5Y cells using liposomes. After 24 hours, the cells were lysed, and changes in FUS protein were detected by Western blot.

FUS protein [3] = test: Proteomics before and after dFUS-C1 treatment
FUS-WT = molecular target: T3, FUS-WT (Homo sapiens, UniProt P35637); test: Degradation of FUS-WT in 293T cells, Western blot; details: 1000 nM, 24 hours
T3 construct: expressed in transfected cells; host or cells: 293T cells
T3 sequence (P35637 1-526): T2 sequence (P35637 1-526)

FUS-P525L = molecular target: T4, FUS-P525L (Homo sapiens, UniProt P35637, P525L); test: Degradation of mutant FUS-P525L in 293T cells, Western blot; details: 1000 nM, 24 hours
T4 construct: expressed in transfected cells; host or cells: 293T cells
T4 sequence (P35637 1-526 P525L): T2 sequence (P35637 1-526) with P525L
Method: (§2) dFUS-C1 solutions were prepared at concentration gradients of 37.5 nM, 62.5 nM, 125 nM, 250 nM, 500 nM, 1000 nM, and 2000 nM, and were transfected into 293T cells expressing different mutant FUS proteins using liposomes. After 24 hours, the cells were lysed, and changes in FUS protein were detected by Western blot. FIG. 11A to FIG. 11E show the degradation of different mutant FUS by dFUS-C1 in 293T cells.

FUS-R521C = molecular target: T5, FUS-R521C (Homo sapiens, UniProt P35637, R521C); test: Degradation of mutant FUS-R521C in 293T cells, Western blot; details: 1000 nM, 24 hours
T5 construct: expressed in transfected cells; host or cells: 293T cells
T5 sequence (P35637 1-526 R521C): T2 sequence (P35637 1-526) with R521C
Method: as §2

FUS-R521G = molecular target: T6, FUS-R521G (Homo sapiens, UniProt P35637, R521G); test: Degradation of mutant FUS-R521G in 293T cells, Western blot; details: 1000 nM, 24 hours
T6 construct: expressed in transfected cells; host or cells: 293T cells
T6 sequence (P35637 1-526 R521G): T2 sequence (P35637 1-526) with R521G
Method: as §2

FUS-R521H = molecular target: T7, FUS-R521H (Homo sapiens, UniProt P35637, R521H); test: Degradation of mutant FUS-R521H in 293T cells, Western blot; details: 1000 nM, 24 hours
T7 construct: expressed in transfected cells; host or cells: 293T cells
T7 sequence (P35637 1-526 R521H): T2 sequence (P35637 1-526) with R521H
Method: as §2

SH-SY5Y cells = test: Neurotoxicity caused by FUS overexpression (ROS, LDH release, CCK8); details: SH-SY5Y cells transfected with FUS plasmids, CCK8 cell viability
Method: In this example, ROS detection kit, LDH release detection kit, and CCK8 reagent were used for cytotoxicity detection. Specifically: 5×10^3 SH-SY5Y cells were added to 96-well plates and cultured at 37° C., 5% CO2 cell incubator for 12 hours; FUS plasmids were transfected into the wells, then the cells were cultured at 37° C., 5% CO2 cell incubator for 24 hours, indicated reagents were added to each well, and corresponding indicators were detected according to the kit instructions.

dFUS-C1: PROTAC obtained by coupling FUS-1 (N3-FUS-RNA #1, SEQ ID NO: 1) with CRBN ligand (GUUUGGUGAUGUUUGGUGAU; RNA, backbone not given here; 5' azide via C6 amino linker, click-coupled to CRBN ligand (PROTAC))
degradation of FUS protein (FUS protein [1]; 125 nM): stably and efficiently degrade FUS protein
degradation of FUS protein (FUS protein [1]; concentration gradient 9.4-125 nM): could efficiently degrade FUS protein
degradation of FUS protein (FUS protein [2]): could efficiently degrade FUS protein
specificity of degradation (proteomics) (FUS protein [3]): specific degradation effects on FUS protein
degradation of FUS-WT (FUS-WT): could efficiently degrade
degradation of FUS-P525L (FUS-P525L): could efficiently degrade
degradation of FUS-R521C (FUS-R521C): could efficiently degrade
degradation of FUS-R521G (FUS-R521G): could efficiently degrade
degradation of FUS-R521H (FUS-R521H): could efficiently degrade
neurotoxicity caused by FUS overexpression (SH-SY5Y cells): significantly inhibited the neurotoxicity caused by FUS overexpression
